Patent US12152038B2, “Vasopressin receptor antagonists and products and methods related thereto” (Neumora Therapeutics, Inc., priority 2017, dated 2024)

Target: T1, human Arginine Vasopressin Receptor 1b (AVPR1b) (Homo sapiens, UniProt P47901)
T1 construct: expressed in transfected cells; host or cells: CHO (CHO-AVPR1b, kept under G418 selection)
T1 sequence (P47901 1-424): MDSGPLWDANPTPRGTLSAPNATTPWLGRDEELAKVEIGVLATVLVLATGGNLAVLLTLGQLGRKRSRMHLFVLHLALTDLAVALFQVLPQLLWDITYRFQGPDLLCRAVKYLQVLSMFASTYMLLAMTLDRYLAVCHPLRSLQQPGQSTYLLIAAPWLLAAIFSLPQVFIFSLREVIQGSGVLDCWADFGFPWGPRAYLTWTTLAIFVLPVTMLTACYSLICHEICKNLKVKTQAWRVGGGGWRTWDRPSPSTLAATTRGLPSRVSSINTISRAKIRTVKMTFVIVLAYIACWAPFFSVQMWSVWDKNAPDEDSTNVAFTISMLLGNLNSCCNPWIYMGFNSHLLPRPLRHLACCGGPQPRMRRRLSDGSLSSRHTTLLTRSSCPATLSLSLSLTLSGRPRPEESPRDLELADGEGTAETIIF
Test: Vasopressin V1b receptor antagonist assay (FLIPR calcium, CHO-AVPR1b cells)
Assay type: cell-based
Protocol: The purpose of the assay was to determine the inhibitory effect of synthesized compounds on the Vasopressin V1b receptor. The assay was performed in Chinese Hamster Ovary (CHO) cells expressing the human Arginine Vasopressin Receptor 1b (AVPR1b). Arginine Vasopressin (AVP) evokes an increase in intracellular calcium in CHO-AVPR1b cells which is measured in a fluorescence assay on the FLIPR^TETRA using calcium sensitive dyes. Test compounds were assessed for their ability to affect the magnitude of the response to AVP, with antagonists showing a concentration-dependent reduction in the AVP-mediated fluorescence.
CHO-AVPR1b cells were maintained in routine culture in T175 Flasks at 37° C., 5% CO2. The growth medium consisted of Ham's F12 media supplemented with 10% v/v fetal bovine serum, 1× non-essential amino acids, and 0.4 mg/ml Geneticin G418.
Cells were harvested from T175 flasks when they were 80-90% confluent by first washing the cell monolayer with PBS and then dissociated using trypsin 0.05%/EDTA (3 mL for a T175 Flask). The flasks were incubated at room temperature until the cells detached. To the cell suspension, 10 ml of growth media was added and the cell density determined using the Vi-Cell automated cell counter. The cells were spun at 1000 rpm for 3 minutes, then the supernatant was carefully removed and discarded. The cell pellet was re-suspended at 6.0e^5 cells/ml in growth media. 25 μL of cells in growth media was dispensed into each well (15,000 cells per well) of a poly-D-lysine coated black, clear bottomed, 384-well plate. The plates were incubated at 37° C., 5% CO2 overnight.
At the start of each assay day, the potency of AVP was assessed and an EC80 concentration determined for subsequent compound profiling. Assays were performed using a two-step addition protocol on the FLIPR^TETRA; first addition of 5 μl of control or test compound at 10× final in assay buffer with 15 min incubation at 37° C., 5% CO2 followed by 10 μl of AVP at 6× final concentration in assay buffer. Changes in fluorescence were monitored for 3 min after both additions on the FLIPR^TETRA using 470-495 nm excitation and 515-575 nm emission wavelengths. The assay buffer consisted of HBSS (+Ca/+Mg) supplemented with 20 mM HEPES, and for the preparation of the AVP agonist only, 0.1% w/v bovine serum albumin. The assay was initiated by the removal of growth media from the cells and replacement with 45 μl of Calcium-6 dye (Molecular Devices) prepared at 1× in assay buffer. Cells were loaded with dye for 60-90 min at 37° C., 5% CO2 before initiation of the FLIPR^TETRA protocol. […] For compound profiling, test compounds were first serially diluted in DMSO (10-point curve, 1:3 dilutions) then diluted 33.3-fold in assay buffer prior to addition to the dye loaded cells on the FLIPR^TETRA. At the end of the incubation period 10 μl of AVP in assay buffer containing 0.1% BSA was added at the previously determined EC80 concentration.
In-plate controls for the assay included a Nelivaptan concentration-response curve as the reference V1b antagonist and an AVP concentration-response curve to confirm the reproducibility of the EC80 used for the compound challenge.

Row | IC50 [nM] | SMILES
1 | ≥ 1000 | CC1COc2cc(F)ccc2N1C(=O)N1CC2(C1)CN(c1ncc(F)cn1)C2 (single isomer, unassigned) [18-4-B]
2 | ≥ 1000 | CC1COc2cc(F)c(F)cc2N1C(=O)N1CC2(C1)CN(c1ncccn1)C2 (single isomer, unassigned) [19-1-B]
3 | ≥ 1000 | CC1COc2cc(Cl)c(F)cc2N1C(=O)N1CC2(C1)CN(c1ncccn1)C2 (single isomer, unassigned) [19-2-B]
4 | ≥ 1000 | CC1COc2cc(F)c(F)cc2N1C(=O)N1CC2(C1)CN(c1cccnn1)C2 (single isomer, unassigned) [19-3-B]
5 | ≥ 1000 | CC1COc2cc(Cl)c(F)cc2N1C(=O)N1CC2(C1)CN(c1cccnn1)C2 (single isomer, unassigned) [19-4-A]
6 | ≥ 1000 | CC1COc2cc(F)c(F)cc2N1C(=O)N1CC2(C1)CN(c1ccc(F)cn1)C2 (single isomer, unassigned) [19-5-B]
7 | ≥ 1000 | CC1COc2cc(Cl)ccc2N1C(=O)N1CC2(C1)CN(c1cccnc1)C2 (single isomer, unassigned) [20-1-B]
8 | ≥ 1000 | Cc1cncc(N2CC3(CN(C(=O)N4c5ccc(F)cc5OCC4C)C3)C2)n1 (single isomer, unassigned) [20-2-A]
9 | ≥ 1000 | Cc1cncc(N2CC3(CN(C(=O)N4c5ccc(F)cc5OCC4C)C3)C2)n1 (single isomer, unassigned) [20-2-B]
10 | ≥ 1000 | CC1COc2cc(F)ccc2N1C(=O)N1CC2(C1)CN(c1cc(C#N)ccn1)C2 (single isomer, unassigned) [20-3-B]
11 | ≥ 1000 | Cc1ccnc(N2CC3(CN(C(=O)N4c5ccc(F)cc5OCC4C)C3)C2)c1 (single isomer, unassigned) [20-4-B]
12 | ≥ 1000 | Cc1cnc(N2CC3(CN(C(=O)N4c5ccc(Cl)cc5OCC4C)C3)C2)cn1 (single isomer, unassigned) [20-5-B]
13 | ≥ 1000 | CC1COc2cc(Cl)ccc2N1C(=O)N1CC2(C1)CN(c1cc(C#N)ccn1)C2 (single isomer, unassigned) [20-6-B]
14 | ≥ 1000 | Cc1nc(N2CC3(CN(C(=O)N4c5ccc(Cl)cc5OCC4C)C3)C2)ncc1F (single isomer, unassigned) [20-7-B]
15 | ≥ 1000 | COc1ccnc(N2CC3(CN(C(=O)N4c5ccc(Cl)cc5OCC4C)C3)C2)c1 (single isomer, unassigned) [20-8-B]
16 | ≥ 1000 | COc1ccnc(N2CC3(CN(C(=O)N4c5ccc(Cl)cc5OCC4C)C3)C2)n1 (single isomer, unassigned) [20-9-B]
17 | ≥ 1000 | Cc1nccnc1N1CC2(CN(C(=O)N3c4ccc(Cl)cc4OCC3C)C2)C1 (single isomer, unassigned) [20-10-A]
18 | ≥ 1000 | Cc1ccnc(N2CC3(CN(C(=O)N4c5ccc(Cl)cc5OCC4C)C3)C2)n1 (single isomer, unassigned) [20-12-B]

More lines, now with the values behind:

Row | SMILES | IC50 [nM]
19 | CC1COc2cc(Cl)ccc2N1C(=O)N1CC2(C1)CN(c1ncccn1)C2 (single isomer, unassigned) [1-83-B, (7-chloro-3-methyl-2,3-dihydro-4H-benzo[b][1,4]oxazin-4-yl)(6-(pyrimidin-2-yl)-2,6-diazaspiro[3.3]heptan-2-yl)methanone] | ≥ 1000
20 | CC1COc2cc(F)ccc2N1C(=O)N1CC2(C1)CN(c1noc3ccccc13)C2 (single isomer, unassigned) [4-3-B] | ≥ 1000
21 | CC1COc2cc(Cl)ccc2N1C(=O)N1CC2(C1)CN(c1cccnn1)C2 (single isomer, unassigned) [9-1-A] | ≥ 1000
22 | CC1COc2cc(Cl)ccc2N1C(=O)N1CC2(C1)CN(c1cccnn1)C2 (single isomer, unassigned) [9-1-B] | ≥ 1000
23 | CC1CN(C(=O)N2CC3(C2)CN(c2ccc(F)cn2)C3)c2ccc(Cl)cc2O1 (single isomer, unassigned) [9-3-A] | ≥ 1000
24 | CC1CN(C(=O)N2CC3(C2)CN(c2ccc(F)cn2)C3)c2ccc(F)cc2O1 (single isomer, unassigned) [9-4-B] | ≥ 1000
25 | CC1COc2cc(F)ccc2N1C(=O)N1CC2(C1)CN(c1ccc(F)cn1)C2 (single isomer, unassigned) [12-1-B] | ≥ 1000
26 | O=C(N1CC2(C1)CN(c1ccc(F)cn1)C2)N1CCC(O)c2cc(Cl)ccc21 (single isomer, unassigned) [13-1-A] | ≥ 1000
27 | O=C(N1CC2(C1)CN(c1ccccn1)C2)N1CCC(O)c2cc(Cl)ccc21 (single isomer, unassigned) [13-2-A] | ≥ 1000
28 | O=C(N1CC2(C1)CN(c1ccccn1)C2)N1CCC(O)c2cc(Cl)ccc21 (single isomer, unassigned) [13-2-B] | ≥ 1000
29 | O=C(N1CC2(C1)CN(c1cnccn1)C2)N1CCC(O)c2cc(Cl)ccc21 (single isomer, unassigned) [13-3-A] | ≥ 1000
30 | CC1COc2cc(Cl)ccc2N1C(=O)N1CC2(C1)CN(c1noc3cccnc13)C2 (single isomer, unassigned) [18-3-B] | ≥ 1000
31 | O=C(N1CC2(C1)CN(c1ncccn1)C2)N1CCOc2cc(Cl)ccc21 [1-4] | ≥ 1000
32 | Cc1cccnc1N1CC2(CN(C(=O)N3CCOc4cc(Cl)ccc43)C2)C1 [1-5] | ≥ 1000
33 | Cc1ccnc(N2CC3(CN(C(=O)N4CCOc5cc(Cl)ccc54)C3)C2)c1 [1-14] | ≥ 1000
34 | COc1ccnc(N2CC3(CN(C(=O)N4CCOc5cc(Cl)ccc54)C3)C2)c1 [1-15] | ≥ 1000
35 | O=C(N1CC2(C1)CN(c1ncccc1F)C2)N1CCc2cc(Cl)ccc21 [1-76] | ≥ 1000

Row | SMILES | IC50 [nM]
36 | O=C(N1CC2(C1)CN(c1ccccn1)C2)N1CCc2cc(Cl)ccc21 [1-77] | ≥ 1000
37 | O=C(N1CC2(C1)CN(c1cccc(F)n1)C2)N1CCc2cc(Cl)ccc21 [1-78] | ≥ 1000
38 | O=C(N1CC2(C1)CN(c1cc(F)ccn1)C2)N1CCc2cc(Cl)ccc21 [1-79] | ≥ 1000
39 | O=C(N1CC2(C1)CN(c1cccnn1)C2)N1CCOc2cc(Cl)c(F)cc21 [1-81] | ≥ 1000
40 | O=C(N1CC2(C1)CN(c1noc3ccccc13)C2)N1CCOc2cc(Cl)ccc21 [4-1, (6-(benzo[d]isoxazol-3-yl)-2,6-diazaspiro[3.3]heptan-2-yl)(7-chloro-2,3-dihydro-4H-benzo[b][1,4]oxazin-4-yl)methanone] | ≥ 1000
41 | O=C(N1CC2(C1)CN(c1ncc(F)cn1)C2)N1CCOc2cc(Cl)ccc21 [4-2] | ≥ 1000
42 | CC1COc2cc(F)ccc2N1C(=O)N1CC2(C1)CN(c1noc3ccccc13)C2 (stereo not drawn) [4-3] | ≥ 1000
43 | Cc1nc(N2CC3(CN(C(=O)N4CCOc5cc(Cl)ccc54)C3)C2)ncc1F [6-1, (7-chloro-2,3-dihydro-4H-benzo[b][1,4]oxazin-4-yl)(6-(5-fluoro-4-methylpyrimidin-2-yl)-2,6-diazaspiro[3.3]heptan-2-yl)methanone] | ≥ 1000
44 | O=C(N1CC2(C1)CN(c1ccccn1)C2)N1CCOc2cc(Cl)ccc21 [8-2] | ≥ 1000
45 | O=C(N1CC2(C1)CN(c1cnccn1)C2)N1CCOc2cc(Cl)ccc21 [8-3] | ≥ 1000
46 | O=C(N1CC2(C1)CN(c1ccc(F)cn1)C2)N1CCOCc2cc(Cl)ccc21 [8-4] | ≥ 1000
47 | O=C(N1CC2(C1)CN(c1ccc(F)cn1)C2)N1CCc2cc(Cl)ccc21 [8-11] | ≥ 1000
48 | O=C(N1CC2(C1)CN(c1ccccn1)C2)N1CCOCc2cc(Cl)ccc21 [8-12] | ≥ 1000
49 | O=C(N1CC2(C1)CN(c1cnccn1)C2)N1CCOCc2cc(Cl)ccc21 [8-13] | ≥ 1000
50 | O=C(N1CC2(C1)CN(c1cnccn1)C2)N1CCc2cc(Cl)ccc21 [8-14] | ≥ 1000
51 | CC1Cc2cc(Cl)ccc2N1C(=O)N1CC2(C1)CN(c1ccc(F)cn1)C2 (stereo not drawn) [8-16] | ≥ 1000
